Assays:
Format in all cases: in vivo
Heliothis peltigera [1] = test: Pheromonotropic bioassay: peptide injected into females, pheromone content (Z11-16:Ald) of the gland measured; conditions: for effect of protease inhibitors on the biological activity of the peptide (in words): mixture of carboxypeptidase inhibitors (aprotinin and PMSF) and other protease inhibitors (TLCK, bacitracin) (FIG. 3); for biological activity (in words): 10 pmol in the presence of protease inhibitors for 2 hours
Procedure: Structure activity studies were performed by an examination of the pheromonotropic activity of synthetic Hez-PAN (PBAN 1-33 NH2) and ten shorter fragments derived from its N- and C-terminal regions. Activity was tested on Heliothis peltigera using a bioassay as described by Gazit et al; (Insect Biochem., 20, 853-858, 1990). These structures are as follows:
The role of the N-terminus on the onset of the biological activity was examined using a series of peptides lacking 8, 12, 16, and 18 amino acids from their N-terminus [PBAN (9-33) NH2, PBAN (13-33) NH2, PBAN (17-33) NH2 and PBAN (19-33) NH2], respectively. […] Pheromone content was examined two hours post-injection. […] The N-terminal region may provide stability against proteolytic degradation or alternatively may play a secondary structural role.
Pheromonotropic activity was determined by injecting the peptides, dissolved in buffer phosphate to 3.5-4.5 days old females during daylight for two hours. Pheromone content is represented by the amount of the major pheromone component Z11-16:Ald.

Heliothis peltigera [2] = test: Inhibition of pheromonotropic activity evoked by PBAN (1-33) NH2 (co-injection of free acid fragments or antiserum); conditions: for inhibitory activity on pheromonotropic activity evoked by PBAN (1-33) NH2 (in words): injected together with 1 pmol PBAN (1-33) NH2
Procedure: Structure activity studies were performed by an examination of the pheromonotropic activity of synthetic Hez-PAN (PBAN 1-33 NH2) and ten shorter fragments derived from its N- and C-terminal regions. Activity was tested on Heliothis peltigera using a bioassay as described by Gazit et al; (Insect Biochem., 20, 853-858, 1990).

Heliothis peltigera [3] = test: Pheromonotropic bioassay: peptide injected into females, pheromone content (Z11-16:Ald) of the gland measured; conditions: shortly after injection (15-30 min) (FIG. 5)
[4] = test system: Spodoptera littoralis larvae; test: Melanotropic bioassay: cuticular melanization in ligated larvae; conditions: for Non pigmented area / Pigmented area: 10 pmol injected, ligated larvae, computerized optical density scanner; for cuticular melanization (in words): injection into ligated larvae, compared with ligation or buffer injection
Procedure: Structure activity studies were also performed with respect to the melanotropic activity of synthetic Hez-PBAN. All the fragments that were tested for their pheromonotropic activity were also tested for their melanotropic activity. Studies were performed on Spodoptera littoralis larvae using a quantitative bioassay (Altstein et al., Peptides, submitted, 1994) which examines the ability of PBAN fragments to induce cuticular melanization in ligated larvae. Ligated larvae produce smaller amounts of melanin compared to untreated larvae (Table 4) as a result of a reduction in their endogenous PBAN. Under the tested conditions ligation caused a significant, but not complete, reduction in cuticular melanization. This incomplete reduction may result from the presence of PBAN in ganglia which were not affected by the ligation or from the presence of another hormone or neuropeptide that affects this process.
Pigmented and non-pigmented areas were determined by a computerized optical density scanner as described by Altstein et al., (Peptides, submitted, 1994).

[5] = 1 pmol, pheromone content two hours post-injection
[6] = Dose of 1 pmol, injected in phosphate buffer to 3.5-4.5 days old females during daylight for two hours
[7] = Dose of 10 pmol, injected in phosphate buffer to 3.5-4.5 days old females during daylight for two hours
[8] = free acid fragment at 10 pmol injected together with PBAN (1-33) NH2 at 1 pmol
[9] = C-terminally free acid peptides, 10 pmol, in the presence of protease inhibitors for 2 hours
[10] = concentrations ranging from 1-100 pmol, tested 2 hours post injection (FIG. 4)

Row | Substance | Pheromone content Z11-16:Ald ng/gland ± SE (Heliothis peltigera [1]; [6]) | Pheromone content Z11-16:Ald ng/gland ± SE (Heliothis peltigera [1]; [7]) | Inhibition (% of cont) (Heliothis peltigera [2]; [8]) | Pheromone content Z11-16:Ald ng/gland ± SE (Heliothis peltigera [2]; [8]) | Pheromone content Z11-16:Ald ng/gland ± SE (Heliothis peltigera [1]; [9]) | further results
1 | H-Pro-Glu^20-Gln-Ile-Asp-Ser-Arg-Thr-Lys-Tyr-Phe-Ser^30-Pro-Arg-Leu^33-NH2 [PBAN (19-33) NH2] | 52.7 ± 21.0 b ng/gland | 133.8 ± 15.7 b′ ng/gland |  |  |  | pheromonotropic activity (in words) (Heliothis peltigera [1]; [5]): low activity
2 | H-Leu^1-Ser-Asp-Asp-Met-Pro-Ala-Thr-Pro-Ala^10-Asp-Gln-Glu-Met-Tyr-Arg-Gln-Asp-Pro-Glu^20-Gln-Ile-Asp-Ser-Arg-Thr-Lys-Tyr-Phe-Ser^30-Pro-Arg-Leu^33-COOH [PBAN (1-33) COOH] |  |  | 0% | 170.2 ± 24.2 ng/gland | 1.4 ± 0.76 ng/gland | inhibitory activity on pheromonotropic activity evoked by PBAN (1-33) NH2 (in words) (Heliothis peltigera [2]): did not show any inhibitory activity; pheromonotropic activity (in words) (Heliothis peltigera [1]; 10 pmol): completely inactive; effect of protease inhibitors on the biological activity of the peptide (in words) (Heliothis peltigera [1]): did not enhance
3 | H-Pro-Ala^10-Asp-Gln-Glu-Met-Tyr-Arg-Gln-Asp-Pro-Glu^20-Gln-Ile-Asp-Ser-Arg-Thr-Lys-Tyr-Phe-Ser^30-Pro-Arg-Leu^33-NH2 [PBAN (9-33) NH2] | 143.7 ± 29.6 a ng/gland | 168.0 ± 9.2 a′ ng/gland |  |  |  | pheromonotropic activity (in words) (Heliothis peltigera [1]; [5]): active as PBAN (1-33) NH2
4 | H-Pro-Ala^10-Asp-Gln-Glu-Met-Tyr-Arg-Gln-Asp-Pro-Glu^20-Gln-Ile-Asp-Ser-Arg-Thr-Lys-Tyr-Phe-Ser^30-Pro-Arg-Leu^23-COOH (H-PADQEMYRQDPEQIDSRTKYFSPRL-OH) [PBAN (9-33) COOH] |  |  | 7% | 154.7 ± 22.2 ng/gland | <1 ng/gland | inhibitory activity on pheromonotropic activity evoked by PBAN (1-33) NH2 (in words) (Heliothis peltigera [2]): did not show any inhibitory activity; biological activity (in words) (Heliothis peltigera [1]): lack any biological activity
5 | H-Tyr-Phe-Ser^30-Pro-Arg-Leu^33-NH2 (H-YFSPRL-NH2) [PBAN (28-33) NH2] | 5.6 ± 1.7 d ng/gland | 12.7 ± 4.9 c′ ng/gland |  |  |  | pheromonotropic activity (in words) (Heliothis peltigera [3]): does not differ significantly from that of the full length PBAN (1-33) NH2; pheromonotropic activity (in words) (Heliothis peltigera [1]; [10]): active only at high doses (100 pmol)
6 | H-Pro-Ala^10-Asp-Gln-Glu-Met-Tyr-Arg-Gln-Asp^18-COOH (H-PADQEMYRQD-OH) [PBAN (9-18) COOH] |  |  | 35% | 108.1 ± 18.0 ng/gland | <1 ng/gland | inhibition of the pheromonotropic activity (Heliothis peltigera [2]; 100 pmol of fragment together with 0.5 pmol PBAN (1-33) NH2 (FIG. 6)): 40%; Non pigmented area [4]: 25%; Pigmented area [4]: 75%; cuticular melanization (in words) [4]: significant decrease; biological activity (in words) (Heliothis peltigera [1]): lack any biological activity
7 | H-Leu^1-Ser-Asp-Asp-Met-Pro-Ala-Thr-Pro-Ala^10-Asp-Gln-Glu-Met-Tyr-Arg-Gln-Asp-Pro-Glu^20-Gln-Ile-Asp-Ser-Arg-Thr-Lys-Tyr-Phe-Ser^30-Pro-Arg-Leu^33-NH2 [PBAN (1-33) NH2, reference compound] | 200.7 ± 40.7 a ng/gland | 225.2 ± 51.4 a′ ng/gland |  |  |  | Pheromone content Z11-16:Ald ng/gland ± SE (Heliothis peltigera [2]; PBAN (1-33) NH2 alone at 1 pmol (control of Table 3)): 165.0 ± 21.0 ng/gland; Non pigmented area [4]: 4%; Pigmented area [4]: 96%; cuticular melanization (in words) [4]: significant increase; effect of protease inhibitors on the biological activity of the peptide (in words) (Heliothis peltigera [1]): significant stimulation in its activity
8 | H-Glu-Met-Tyr-Arg-Gln-Asp-Pro-Glu^20-Gln-Ile-Asp-Ser-Arg-Thr-Lys-Tyr-Phe-Ser^30-Pro-Arg-Leu^33-NH2 [PBAN (13-33) NH2] | 4.1 ± 3.0 d ng/gland | 180.2 ± 47.3 a′ ng/gland |  |  |  | 
9 | H-Thr-Lys-Tyr-Phe-Ser^30-Pro-Arg-Leu^33-NH2 (H-TKYFSPRL-NH2) [PBAN (26-33) NH2] | 8.9 ± 3.5 d ng/gland | 12.2 ± 3.1 c′ ng/gland |  |  |  | pheromonotropic activity (in words) (Heliothis peltigera [1]; [10]): active only at high doses (100 pmol)
10 | H-Gln-Asp-Pro-Glu^20-Gln-Ile-Asp-Ser-Arg-Thr-Lys-Tyr-Phe-Ser^30-Pro-Arg-Leu^33-NH2 [PBAN (17-33) NH2] | 24.1 ± 5.7 c ng/gland | 196.9 ± 40.7 a′ ng/gland |  |  |  | 
11 | H-Pro-Glu^20-Gln-Ile-Asp-Ser-Arg-Thr-Lys-Tyr-Phe-Ser^30-Pro-Arg-Leu^33-COOH [PBAN (19-33) COOH] |  |  | 27% | 120.4 ± 29.2 ng/gland | <1 ng/gland | inhibitory activity on pheromonotropic activity evoked by PBAN (1-33) NH2 (in words) (Heliothis peltigera [2]): did not show any inhibitory activity; biological activity (in words) (Heliothis peltigera [1]): lack any biological activity

Reference: US6358927B1, “Peptide fragments and analogs derived from PBAN 1-33 NH2 for controlling moths” (priority 1994, dated 2002)
